Measurements as given in ChEMBL document CHEMBL1159285, “Identification of 3-hydroxy-3-methylglutaric acid (HMG) as a hypoglycemic principle of Spanish moss (Tillandsia usneoides)” (J Nat Prod, 1995).
Structures can show the parent of a compound that is named as a salt.

Columns and labels:
[1] = tested on: Mus musculus; assay: Hypoglycemic activity in Swiss-Webster mouse assessed as change plasma glucose level at 250 mg/kg, ip after 4 hrs; type: functional; conditions: route intraperitoneal
[2] = tested on: Artemia; assay: Toxicity in brine shrimp; type: organism-based; conditions: in vivo
[3] = Acute toxicity in po dosed mouse; type: organism-based; conditions: in vivo
[4] = species on record: Homo sapiens; assay: Antihypercholesterolemic activity in patient with familial hypercholesterolemia assessed as decrease in plasma cholesterol at 3000 mg/day in 3 divided doses for 8 weeks; type: functional; parameters: scale not given: the % may be the effect or the level left
[5] = Acute toxicity in ip dosed mouse; type: organism-based; conditions: in vivo
[6] = species on record: Homo sapiens; assay: Toxicity in patient with familial hypercholesterolemia at 750 to 2250 mg/day in 3 divided doses for 8 weeks; type: organism-based; conditions: in vivo, 1344 h
[7] = tested on: Mus musculus; assay: Hypoglycemic activity in Swiss-Webster mouse assessed as change plasma glucose level at 62.5 mg/kg, ip after 4 hrs; type: functional; conditions: route intraperitoneal
[8] = species on record: Homo sapiens; assay: Antihypercholesterolemic activity in patient with familial hypercholesterolemia assessed as decrease in plasma cholesterol at 2250 mg/day in 3 divided doses for 8 weeks; type: functional; parameters: scale not given: the % may be the effect or the level left
[9] = tested on: Mus musculus; assay: Hypoglycemic activity in Swiss-Webster mouse assessed as change plasma glucose level at 125 mg/kg, ip after 4 hrs; type: functional; conditions: route intraperitoneal

| SMILES | Activity [1] | LC50 [2] | also measured |
| --- | --- | --- | --- |
| COC(=O)C(O)(CC(=O)O)CC(=O)O | -7.4% | – | – |
| CCOC(=O)C(O)(CC(=O)O)CC(=O)O | -6.6% | – | – |
| COC(=O)CC(O)(CC(=O)OC)C(=O)OC | 29% | – | – |
| COc1cc(-c2oc3cc(O[C@@H]4O[C@H](CO)[C@@H](O)[C@H](O)[C@H]4O)c(OC)c(O)c3c(=O)c2OC)cc(OC)c1O | -1% | 420 ppm | – |
| CCOC(=O)CC(O)(CC(=O)O)C(=O)OCC (stereo not drawn) | -17.3% | – | – |
| COC(=O)CC(O)(CC(=O)O)C(=O)OC (stereo not drawn) | 35.8% | – | – |
| O=C(O)CC(O)(CC(=O)O)C(=O)O [CITRIC ACID] | 47.3% | 50 ppm | – |
| Cc1cn([C@H]2C[C@H](O)[C@@H](CO)O2)c(=O)[nH]c1=O [DOXRIBTIMINE] | 25.5% | > 1000 ppm | – |
| CC(O)(CC(=O)O)CC(=O)O [MEGLUTOL] | -41.7% | 228 ppm | LD50 [3]: 7330 mg/kg; Activity [4]: 13%; LD50 [5]: 3230 mg/kg; Activity [6]: Non-toxic; Activity [7]: 7.9%; Activity [8]: 11%; Activity [9]: -21% |
| O=C(O)CCC(=O)O [SUCCINIC ACID] | 9.9% | 40 ppm | – |
| CCOC(=O)CC(O)(CC(=O)OCC)C(=O)OCC [TRIETHYL CITRATE] | -13.6% | – | – |
